Measured values reported in US9474911B2, “Delivery of large molecular weight biologically active substances” (PhotoKinetix Holdings Inc., priority 2011, dated 2016).
Where two headings read alike, the source gives them in different places.

Experiments:
[1] = 24 hours
[2] = diabetic rats; photokinetic delivery (Kulp et al., 2010); cited from earlier work
[3] = 450 nm light pulsed at 100 cps; 24 hours; p<0.05

HGH: Human growth hormone with a molecular weight of 22,124 Da
transdermal permeation flux of HGH, photokinetic compared to passive permeation ([1]; 350, 390, 405 and 450 nm at 24 cps, donor 270 ng/ml, p<0.001): significantly increased

insulin: insulin, molecular weight of about 5,730 Da
blood sugar levels [2]: blood sugar levels were reduced

Hyaluronic acid [69 kDa hyaluronic acid]
intradermal deposition, photokinetic compared to passive control [3]: significantly higher intradermal deposition | transdermal flux rate, 24 cps compared to 100 cps ([1]; 405 nm light, p<0.05): significantly higher than 405 nm light pulsed at 100 cps | transdermal flux rate, photokinetic compared to passive permeation [1]: significantly higher than passive permeation

Hyaluronic acid [2,100 kDa hyaluronic acid]
transdermal flux rate, photokinetic compared to passive permeation control ([1]; 390, 405 and 450 nm at 24 cps and 405 nm at 100 cps, p<0.05): significantly higher than passive permeation control samples | transdermal flux rate, 24 cps compared to 100 cps ([1]; 390 nm, 405 nm and 436 nm light, p<0.05): significantly higher than 390 nm, 405 nm, and 436 nm light pulsed at 100 cps
